Experimental data published in patent publication US8658684B2, “Pharmaceutical composition and its use in the preparation of a medicament for the treatment of cerebrovascular diseases” (Jiangsu Simcere Pharmaceutical R & D Co., Ltd., priority 2008, dated 2014).

Key:
[1] = tested on: MCAO cerebral ischemia/reperfusion model rats; experiment: Middle cerebral artery occlusion (MCAO) cerebral ischemia/reperfusion model, internal carotid thread method (Example 17); format: in vivo, Wistar rats; conditions: Edaravone+natural borneol total 0.75 mg/kg, Nimodipine 0.4 mg/kg single dosage, mean ± SD, n=8
Description: 1.2 Drugs and Reagents: Edaravone+natural borneol for injection of Examples 5, 8 and 9.
Middle cerebral artery occlusion (MCAO), a cerebral ischemia/reperfusion model, was prepared using the internal carotid thread method. Animals were anesthetized with 10% chloral hydrate (3.5 mL/kg), and then fixed on the operation table in prone position. The skin was disinfected and the neck was incised from the midline. Right common carotid, external carotid and internal carotid were separated, and vagus nerve was separated carefully. The external carotid was ligated and severed. Moved forward along the internal carotid, and then pterygopalatine artery was ligated. The proximal part of common carotid was clamped and a cut was made at the distal end of the external carotid ligature. A nylon thread with the outer diameter of 0.285 mm was inserted into the cut, through the branch of common carotid and then into internal carotid slowly until a slight resistance was met (about 20 mm distance from the divergence point). […] Cerebral blood flow was monitored by using laser Doppler cerebral flowmetry. After ischemia in the right brain for 2.0 h, the nylon thread was withdrawn slowly and then blood supply was recovered for reperfusion. The scalp was sutured and disinfected. In the sham group, only the blood vessels were separated without the insertion of a nylon thread. During the operation, rat heating plate and desk lamp with 60 W were used to keep the body temperature of rats at 37.0±0.5° C. […]
Neurological deficit scoring: neurological deficit symptoms were evaluated according to modified Bederson scoring system of 5-point. Neurological deficit symptoms after cerebral trauma in rats were evaluated by using single-blinded method. That is, the experiment designer labeled the animals in groups, while the experiment performer who scored neurological deficit symptoms were blinded for animals grouping. […]

[2] = tested on: focal cerebral ischemia reperfusion model rats; experiment: Focal cerebral ischemia reperfusion model in rats, intraperitoneal dosing (Example 16); format: in vivo, Wistar rats; conditions: for Cerebral infarction size (%): 2 h ischemia, 24 h reperfusion, i.p. twice (30 min before ischemia, 12 h after reperfusion), combination 0.5+0.25 mg/kg, control 35.7 ± 7.52; for Cerebral infarction size (%) / neurological deficit score (points) / Cerebral water content (%): Edaravone 1.0 mg/kg, natural borneol 0.5 mg/kg, mean ± SD; for neurological deficit score (points): Longa 5-point scoring 24 h after reperfusion, control 3.1 ± 1.05; for neurological deficit score (points) / Cerebral water content (%): combination 0.5+0.25 mg/kg i.p. twice; for Cerebral water content (%): dry and wet method after ischemia/reperfusion, sham 78.41, control 82.19; for cerebral edema / cerebral water content compared with control group: single drugs P<0.05, combination P<0.01; for effect on symptoms of neurological deficits: versus control group, doses as Table 1
Description: 1.1 Animals: healthy male Wistar rats weighing 280-320 g.
1.2 Drugs and Reagents: Edaravone for injection (2 mg/mL) of Example 1, natural borneol injection (2 mg/mL) of Example 3 and Edaravone+natural borneol injection of Example 5.
Main steps are described as follows. Rats were anesthetized with 10% chloral hydrate (350 mg/kg, i.p.). Right external carotid was separated, ligated and severed. A nylon thread with rounded tip was inserted slowly for about 18 mm in depth into the residual end of right external carotid and through common carotid and internal carotid to induce ischemia by blocking the origin of middle cerebral artery. After ischemia for 2 h, the nylon thread was removed for reperfusion for 24 h. Animals in the sham group were treated identically to those in the model group, except that a nylon thread was just used to separate the artery. Manifestation of Homer's symptom and opposite lateral body dyskinesia after animal revival means a successful modelling.
Experimental animals were randomly divided into five groups, including sham group, control group and drug groups. Animals in drug groups were intraperitoneally injected twice, 30 min before ischemia and 12 h after reperfusion. Animals in sham group and control group were each injected with equal volume of normal saline instead.
Neurological deficit scoring: Behavioral evaluation was performed 24 h after reperfusion according to Longa 5-point scoring system.
Determination of cerebral infarction size: Animals were decapitated to get the brain after the last neurological deficit scoring. Rhinencephalon, lower brain stem and cerebella were removed, and the remaining brains were immediately weighted to obtain wet weights. The brains were sectioned coronally into five slices with substantially identical thickness on ice, then incubated in 2,3,5-triphenyl tetrazolium chloride for 30 min at 37° C. Normal brain tissues appeared rose, while infarction areas appeared white. Next, brain slices were fixed in 10% formaldehyde, and white tissues were carefully removed and weighed. Infarction size was determined by the percentage of infracted tissue weight in the total cerebral weight.
Determination of cerebral water content: Cerebral water contents were determined by dry and wet method. Animals were sacrificed to get the whole brain. Rhinencephalon, lower brain stem and cerebella were removed and the wet weight of the remaining brains was determined immediately. Dry weight was obtained after baking in a oven for about 18 h at 120° C. Cerebral water content was calculated according to the following equation: Cerebral water content (%)=(cerebral wet weight−cerebral dry weight)/cerebral wetweight×100.

[3] = tested on: cerebral ischemia/reperfusion model rats; experiment: Focal cerebral ischemia/reperfusion model, Edaravone versus combinations 2:1, 4:1, 9:1 (Example 18); format: in vivo, Wistar rats
Description: 1.1 Animals: Healthy male Wistar rats weighing 280-320 g.
1.2 Drugs and Reagents: Edaravone for injection (2 mg/mL) of Example 1, and Edaravone+natural borneol for injection of Examples 5, 7 and 11.
Experimental methods and evaluation methods are the same as Example 13.

New Zealand rabbits = experiment: Repeated intravenous toxicity in rabbits: hematuria, gross necropsy, histopathology (Example 19); format: in vivo; conditions: for incidence of hematuria: marginal ear vein once daily, 6 rabbits
Description: 1.1 Animals: 36 New Zealand rabbits, general grade, with body weight of 2.0-3.0 kg, 18 ♂ and 18 ♀(female and male) respectively.
1.2 Drugs and Reagents: drugs obtained from Examples 12, 13, 14 and 15; 1,2-propylene glycol, 0.9% sodium chloride injection.
Edaravone 80 mg/kg (propylene glycol content: 40%)
Edaravone 20 mg/kg (propylene glycol content: 10%)
Combined Edaravone 120 mg/kg (propylene glycol content: 50%)
Combined Edaravone 30 mg/kg (propylene glycol content: 10%)
Combined Edaravone in this Example refers to Edaravone+natural borneol (weight ratio=2:1).
In the above dosage groups, the dosage per day per rabbit was calculated according to actual weight of each rabbit. The test drugs were administrated in equal volume according to body weight of respective rabbits.
36 rabbits were numbered and randomly divided into six groups according to the body weight, including 4 dosage groups, “Edaravone+natural borneol (weight ratio=2:1)” 120 mg/kg, 30 mg/kg; “Edaravone” 80 mg/kg, 20 mg/kg; as well as vehicle group (40% propylene glycol solution) and solvent group (0.9% sodium chloride injection). There were 6 rabbits in each group, including 3 males and 3 females each. Rabbits were habituated and observed for 3 days before the test. During the test, rabbits were dosed once at the same time in each morning via marginal ear vein injection. Rabbits in high dosage groups were continuously dosed for 13 days, while in low dosage groups, solvent group and vehicle group for 20 days. The dosage were regulated in accordance with body weight variation. Animal responses, stimulations at injection sites and histopathological examination in kidneys and injection site were used to comprehensively evaluate the toxicity of either combined Edaravone or Edaravone on the rabbits.

[4] = Edaravone 80 and 20 mg/kg groups, combined Edaravone 120 and 30 mg/kg groups

Compound	neurological deficit symptoms score ([1]; modified Bederson 5-point score, four administrations (0, 2, 4, 24 h after ischemia), model 2.6 ± 0.52)	brain lesion ([1]; percentage of brain lesion by formazan absorbance at 485 nm, model 33.2 ± 14.8)	cerebral infarction area ([1]; percentage of infarction area by TTC image analysis, model 27.4 ± 13.4)	Cerebral infarction size (%) [2] [%]	neurological deficit score (points) [2] [points]	Cerebral water content (%) [2] [%]	cerebral edema / cerebral water content compared with control group [2]	effect on symptoms of neurological deficits [2]	neurological deficit symptoms score ([3]; Edaravone 3 mg/kg, combination dose not given, mean ± SD, n=8, model 2.7 ± 0.5)	cerebral infarction area ([3]; Edaravone 3 mg/kg, combination dose not given, mean ± SD, n=8, model 25.4 ± 14.8)	brain lesion ([3]; Edaravone 3 mg/kg, combination dose not given, mean ± SD, n=8, model 32.2 ± 15.1)	cerebral infarction area compared with model group ([3]; F4,35=4.62, P=0.03, 4:1 and 9:1 P=0.081)	severity of brain lesion compared with model group ([3]; F4,35=5.78, P=0.04, 4:1 and 9:1 P=0.159)	gross necropsy: rabbits with a swollen kidney (New Zealand rabbits; 20 mg/kg i.v. daily, 20 days)	incidence of hematuria (New Zealand rabbits; 20 mg/kg, 20 days, propylene glycol 10%) [%]	gross necropsy: liver finding (New Zealand rabbits; 80 mg/kg i.v. daily, 13 days)	gross necropsy: rabbits with khaki and swollen kidney having uneven surface (New Zealand rabbits; 80 mg/kg i.v. daily, 13 days)	incidence of hematuria (New Zealand rabbits; 80 mg/kg, 13 days, propylene glycol 40%) [%]	histopathological examination: injection sites (New Zealand rabbits; [4])	histopathological examination: kidney (New Zealand rabbits; [4])
COCCOC(=O)C1=C(C)NC(C)=C(C(=O)OC(C)C)C1c1cccc([N+](=O)[O-])c1 (stereo not shown) [Nimodipine]	1.1 ± 0.58	11.6 ± 5.0	8.8 ± 4.0	–	–	–	–	–	–	–	–	–	–	–	–	–	–	–	–	–
CC1=NN(c2ccccc2)C(=O)C1 [Edaravone, 3-methyl-1-phenyl-2-pyrazolin-5-one]	–	–	–	18.0 ± 5.29	2.5 ± 1.02	81.65 ± 1.24	significant effect	Neither Edaravone alone nor natural borneol alone had significant effect	0.94 ± 0.46	9.7 ± 4.6	11.6 ± 9.7	significantly reduced	significantly reduced	3 of 6	100	one of the rabbits suffered hepatonecrosis and had a khaki and hard liver	3 of 6	100	stimulatory changes such as vascular occlusion to varied extents	progressive renal lesion such as renal tubular lesion, inflammatory infiltration of mesenchyme, and glomerular lesion
CC1(C)C2CCC1(C)C(O)C2 (stereo not shown) [Natural borneol, dextro-camphol]	–	–	–	19.8 ± 6.37	2.0 ± 0.98	81.25 ± 0.97	significant effect	Neither Edaravone alone nor natural borneol alone had significant effect	–	–	–	–	–	–	–	–	–	–	–	–
